Test results published in patent publication US8999940B2 (Ipsen Pharma S.A.S., priority 2008, dated 2015).
Where no end group is shown, it is not given here. [ ]: non-standard residue; d: D form. The star is where a group is joined. Tyr(3-Cl) = N[C@@H](Cc1ccc(O)c(Cl)c1)C(=O)O; Phe(4-CN) = N#Cc1ccc(C[C@H](N)C(=O)O)cc1; Phe(4-Me) = Cc1ccc(C[C@H](N)C(=O)O)cc1; Desaminotyrosyl = O=C(CCc1ccc(O)cc1)*; Hyp = O=C(O)[C@@H]1C[C@@H](O)CN1; Pip = O=C(O)[C@@H]1CCCCN1; Ac6c = NC1(C(=O)O)CCCCC1; Nle = CCCC[C@H](N)C(=O)O; Ac5c = NC1(C(=O)O)CCCC1; Aib = CC(C)(N)C(=O)O

How the values were obtained:
[1] = Human plasma half-life assay; type: in vitro ADME; conditions: 37° C., LC-MS, read-out: Human Plasma T½ (converted)
[2] = target: T1, human recombinant GIP receptor (Homo sapiens, UniProt P48546); assay: In vitro hGIP receptor binding assay
T1 construct: expressed in transfected cells; host or cells: CHO-K1 clonal cells (membrane preparation)
T1 sequence (P48546 22-466): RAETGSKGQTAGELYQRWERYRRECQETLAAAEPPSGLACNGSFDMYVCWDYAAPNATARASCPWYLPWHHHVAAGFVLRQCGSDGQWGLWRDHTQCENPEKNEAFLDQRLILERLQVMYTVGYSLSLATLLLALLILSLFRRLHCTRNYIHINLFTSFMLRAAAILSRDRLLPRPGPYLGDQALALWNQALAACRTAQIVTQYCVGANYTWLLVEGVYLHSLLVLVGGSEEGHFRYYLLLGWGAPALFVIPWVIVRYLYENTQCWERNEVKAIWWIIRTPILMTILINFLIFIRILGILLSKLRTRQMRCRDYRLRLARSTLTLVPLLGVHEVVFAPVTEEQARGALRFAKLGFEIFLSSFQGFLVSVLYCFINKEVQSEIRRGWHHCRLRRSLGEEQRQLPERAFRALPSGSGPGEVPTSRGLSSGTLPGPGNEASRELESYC
Protocol: A. In Vitro hGIP Receptor Binding Assay […] The incubations were terminated by rapid filtration through GF/C filters (pre-soaked in 0.5% polyethylenimine) using a Brandel filtration manifold. Each tube and filter were then washed three times with 5-ml aliquots of ice-cold buffer.

[3] = Rat plasma half-life assay; type: in vitro ADME; conditions: 37° C., LC-MS, read-out: Rat Plasma T½ (converted)
insulin secretion = assay: Determination of in vivo insulin secretion in normal rats; conditions: fasted male Sprague Dawley rats, compound iv with glucose (1 g/kg), plasma insulin up to 20 minutes post-glucose
Protocol: D. Determination of in vivo Insulin Secretion in Normal Rats Male Sprague Dawley rats with a body weight of approximately 275-300 g were used as experimental subjects. The day prior to the treatment, right atrial cannulae were implanted via the jugular vein under chlorohydrate. Each cannula was filled with 100 u/ml heparin saline and tied. […] The day of the experiment, aliquots of compound were thawed, brought to room temperature and vortexed thoroughly. […] At time 0, a 500 μl blood sample was withdrawn through the cannula. Next, either the vehicle or the appropriate dose of the compound was injected into the cannula and pushed in with the glucose (1 g/kg) or vehicle solution. Finally, 500 μl of volume of heparinized saline (10 u/ml) was used to push in the remaining glucose through the cannula. […] The plasma was collected from the blood samples by centrifugation, and stored at −20° C. until assay for insulin content.

Molecule | half-life at 0.1 mg/ml [1] | Ki [2] | half-life at 0.1 mg/ml [3] | AUC (total insulin secretion) (insulin secretion)
CC[C@H](C)[C@H](NC(=O)[C@H](CCCCN)NC(=O)[C@H](CC(=O)O)NC(=O)[C@H](CCSC)NC(=O)[C@H](C)NC(=O)[C@@H](NC(=O)C1(NC(=O)[C@H](Cc2ccc(O)cc2)NC(=O)[C@H](CC(=O)O)NC(=O)[C@H](CO)NC(=O)[C@@H](NC(=O)[C@H](Cc2ccccc2)NC(=O)[C@@H](NC(=O)CNC(=O)[C@H](CCC(=O)O)NC(=O)C(C)(C)NC(=O)[C@@H](N)Cc2ccc(O)c(OC)c2)[C@@H](C)O)[C@@H](C)CC)CCCC1)[C@@H](C)CC)C(=O)N[C@@H](Cc1c[nH]cn1)C(=O)N[C@@H](CCC(N)=O)C(=O)N[C@@H](CCC(N)=O)C(=O)N[C@@H](CC(=O)O)C(=O)N[C@@H](Cc1ccccc1)C(=O)N[C@H](C(=O)N[C@@H](CC(N)=O)C(=O)N[C@@H](Cc1c[nH]c2ccccc12)C(=O)N[C@@H](CC(C)C)C(=O)N[C@@H](CC(C)C)C(=O)N[C@@H](C)C(=O)N[C@@H](CCC(N)=O)C(=O)N[C@@H](CCCCN)C(=O)NCC(=O)N[C@@H](CCCCN)C(=O)N[C@@H](CCCCN)C(=O)N[C@@H](CC(N)=O)C(=O)N[C@@H](CC(=O)O)C(=O)N[C@@H](Cc1c[nH]c2ccccc12)C(=O)N[C@@H](CCCCN)C(=O)N[C@@H](Cc1c[nH]cn1)C(=O)N[C@@H](CC(N)=O)C(=O)N[C@H](C(=O)NC1(C(=O)N[C@@H](CCC(N)=O)C(=O)O)CCCC1)[C@@H](C)CC)C(C)C [Example 28, (3MeO-Tyr^1, Aib^2, A5c^11, 41)hGIP(1-42)-OH] | > 57 h | 1.24 nM | 10 h | 92.88
CC[C@H](C)[C@H](NC(=O)[C@H](CCCCN)NC(=O)[C@H](CC(=O)O)NC(=O)[C@H](CCSC)NC(=O)[C@H](C)NC(=O)[C@@H](NC(=O)C1(NC(=O)[C@H](Cc2ccc(O)cc2)NC(=O)[C@H](CC(=O)O)NC(=O)[C@H](CO)NC(=O)[C@@H](NC(=O)[C@H](Cc2ccccc2)NC(=O)[C@@H](NC(=O)CNC(=O)[C@H](CCC(=O)O)NC(=O)C(C)(C)NC(=O)[C@@H](N)Cc2ccc(O)c(OC)c2)[C@@H](C)O)[C@@H](C)CC)CCCC1)[C@@H](C)CC)C(=O)N[C@@H](Cc1c[nH]cn1)C(=O)N[C@@H](CCC(N)=O)C(=O)N[C@@H](CCC(N)=O)C(=O)N[C@@H](CC(=O)O)C(=O)N[C@@H](Cc1ccccc1)C(=O)N[C@H](C(=O)N[C@@H](CC(N)=O)C(=O)N[C@@H](Cc1c[nH]c2ccccc12)C(=O)N[C@@H](CC(C)C)C(=O)N[C@@H](CC(C)C)C(=O)N[C@@H](C)C(=O)N[C@@H](CCC(N)=O)C(=O)N[C@@H](CCCCN)C(=O)NCC(=O)N[C@@H](CCCCN)C(=O)N[C@@H](CCCCN)C(=O)N[C@@H](CC(N)=O)C(=O)N[C@@H](CC(=O)O)C(=O)N[C@@H](Cc1c[nH]c2ccccc12)C(=O)N[C@@H](CCCCN)C(=O)N[C@@H](Cc1c[nH]cn1)C(=O)N[C@@H](CC(N)=O)C(=O)N[C@H](C(=O)N[C@H](C(=O)N[C@@H](CCC(N)=O)C(=O)N[C@@H](Cc1c[nH]cn1)C(=O)O)[C@@H](C)O)[C@@H](C)CC)C(C)C [Example 73, (3MeO-Tyr^1, Aib^2, A5c^11, His^43)hGIP(1-43)-OH] | 28.6 h | 3.9 nM | 11.8 h | 
CC[C@H](C)[C@H](NC(=O)[C@H](CCCCN)NC(=O)[C@H](CC(=O)O)NC(=O)C1(NC(=O)[C@H](C)NC(=O)[C@@H](NC(=O)C2(NC(=O)[C@H](Cc3ccc(O)cc3)NC(=O)[C@H](CC(=O)O)NC(=O)[C@H](CO)NC(=O)[C@@H](NC(=O)[C@H](Cc3ccccc3)NC(=O)[C@@H](NC(=O)CNC(=O)[C@H](CCC(=O)O)NC(=O)C(C)(C)NC(=O)[C@@H](N)Cc3ccc(O)c(OC)c3)[C@@H](C)O)[C@@H](C)CC)CCCC2)[C@@H](C)CC)CCCC1)C(=O)N[C@@H](Cc1c[nH]cn1)C(=O)N[C@@H](CCC(N)=O)C(=O)N[C@@H](CCC(N)=O)C(=O)N[C@@H](CC(=O)O)C(=O)N[C@@H](Cc1ccccc1)C(=O)N[C@H](C(=O)N[C@@H](CC(N)=O)C(=O)N[C@@H](Cc1c[nH]c2ccccc12)C(=O)N[C@@H](CC(C)C)C(=O)N[C@@H](CC(C)C)C(=O)N[C@@H](C)C(=O)N[C@@H](CCC(N)=O)C(=O)N[C@@H](CCCCN)C(=O)NCC(=O)N[C@@H](CCCCN)C(=O)N[C@@H](CCCCN)C(=O)N[C@@H](CC(N)=O)C(=O)N[C@@H](CC(=O)O)C(=O)N[C@@H](Cc1c[nH]c2ccccc12)C(=O)N[C@@H](CCCCN)C(=O)N[C@@H](Cc1c[nH]cn1)C(=O)N[C@@H](CC(N)=O)C(=O)N[C@H](C(=O)N[C@H](C(=O)N[C@@H](CCC(N)=O)C(=O)N[C@@H](Cc1c[nH]cn1)C(=O)O)[C@@H](C)O)[C@@H](C)CC)C(C)C [Example 74, (3MeO-Tyr^1, Aib^2, A5c^11, 14, His^43)hGIP(1-43)-OH] | > 50 h | 9.34 nM | 12.8 h | 
CC[C@H](C)[C@H](NC(=O)[C@H](CCCCN)NC(=O)[C@H](CC(=O)O)NC(=O)[C@H](CCSC)NC(=O)[C@H](C)NC(=O)[C@@H](NC(=O)C1(NC(=O)[C@H](Cc2ccc(O)cc2)NC(=O)[C@H](CC(=O)O)NC(=O)[C@H](CO)NC(=O)[C@@H](NC(=O)[C@H](Cc2ccccc2)NC(=O)[C@@H](NC(=O)CNC(=O)[C@H](CCC(=O)O)NC(=O)C(C)(C)NC(=O)[C@@H](N)CCc2ccc(O)cc2)[C@@H](C)O)[C@@H](C)CC)CCCC1)[C@@H](C)CC)C(=O)N[C@@H](Cc1c[nH]cn1)C(=O)N[C@@H](CCC(N)=O)C(=O)N[C@@H](CCC(N)=O)C(=O)N[C@@H](CC(=O)O)C(=O)N[C@@H](Cc1ccccc1)C(=O)N[C@H](C(=O)N[C@@H](CC(N)=O)C(=O)N[C@@H](Cc1c[nH]c2ccccc12)C(=O)N[C@@H](CC(C)C)C(=O)N[C@@H](CC(C)C)C(=O)N[C@@H](C)C(=O)N[C@@H](CCC(N)=O)C(=O)N[C@@H](CCCCN)C(=O)NCC(=O)N[C@@H](CCCCN)C(=O)N[C@@H](CCCCN)C(=O)N[C@@H](CC(N)=O)C(=O)N[C@@H](CC(=O)O)C(=O)N[C@@H](Cc1c[nH]c2ccccc12)C(=O)N[C@@H](CCCCN)C(=O)N[C@@H](Cc1c[nH]cn1)C(=O)N[C@@H](CC(N)=O)C(=O)N[C@H](C(=O)N[C@H](C(=O)N[C@@H](CCC(N)=O)C(=O)N[C@@H](Cc1c[nH]cn1)C(=O)O)[C@@H](C)O)[C@@H](C)CC)C(C)C [Example 80, (hTyr^1, Aib^2, A5c^11, His^43)hGIP(1-43)-OH] | 22.6 h | 9.42 nM | 18.4 h | 
Desaminotyrosyl-A[Hyp]GTF[Ac6c]SDYSIAMDKIHQQDFVNWLLAQKGKKNDWKHNITQ [Example 7, (4Hppa^1, 4Hyp^3, A6c^7)hGIP(1-42)-OH] | 38.5 h | 251 nM | 6.8 h | 
Desaminotyrosyl-A[Pip]GTF[Ac6c]SDYSIAMDKIHQQDFVNWLLAQKGKKNDWKHNITQ [Example 8, (4Hppa^1, hPro^3, A6c^7)hGIP(1-42)-OH] | > 53 h | 707 nM | 12.9 h | 
H-[Tyr(3-Cl)][Aib]EGTFISDY[Ac5c]IA[Nle]DKIHQQDFVNWLLAQKGKKNDWKHNITQ-OH [Example 14, (3Cl-Tyr^1, Aib^2, A5c^11, Nle^14)hGIP(1-42)-OH] | 52.1 h | 0.42 nM | 27.4 h | 189.54
[Phe(4-CN)][Aib]EGTFISDY[Ac5c]IAMDKIHQQDFVNWLLAQKGKKNDWKHNITQH-OH [Example 79, (4CN-Phe^1, Aib^2, A5c^11, His^43)hGIP(1-43)-OH] | 26.3 h | 5.12 nM | 21.7 h | 
[Phe(4-Me)][Aib]EGTFISDY[Ac5c]IAMDKIHQQDFVNWLLAQKGKKNDWKHNITQH-OH [Example 78, (4Me-Phe^1, Aib^2, A5c^11, His^43)hGIP(1-43)-OH] | 14.9 h | 9.13 nM | > 52 h | 
